Data as given in patent US20100179646A1 (Rainbow Medical Ltd., priority 2009, published 2010).
Values after ≈ are worked out from the molar mass of the structure shown. “Also recorded” adds a separate entry of the source.

What was measured:
[1] = test system: Enterococcus faecalis strain G; assay: Determination of the MIC, 24 hour turbidity assay (optical density at 650 nm); format: cell-based
Procedure: Materials and Methods. • A Versamax™ temperature-controlled spectrophotometeric plate reader was used to continuously monitor growth of bacteria. This device accepts standard microtiter plates and maintains a constant temperature as desired. It therefore serves both as an incubator and as a plate reader that quantitatively monitors bacterial growth by following the development of turbidity in the wells. The device is supported by software which allows generation of individual growth curves for each well. • Enterococcus faecalis strain G was used. This bacterium was selected to establish a baseline to which other bacteria may be compared in the future. It is a stable strain and is streptomycin-resistant, which allows the use of this antibiotic agent in the growth media to reduce the incidence of accidental contamination with other bacterial strains. • Growth medium and conditions. The tests were conducted using Brain-Heart Infusion broth (BHI) as growth medium. This medium contained 1 mg/100 ml glucose which is approximately equivalent to serum concentration of glucose. A temperature of 37 C was maintained throughout the test. • Antibacterial agents. […] The Triclosan was initially dissolved in […] at a concentration of 10 mg/ml. […] Two types of non-woven fabric were used. The material was cut to standard size of 6 mm2. […] The growth medium contained 1 mg/100 mL glucose, which is approximately equivalent to the concentration that may be present in human blood. […] Bacteria were added at 10^6 CFU/well and the turbidity in the well was continuously monitored for up to 24 h to monitor the growth of the bacteria. Each group consisted of 8 wells with respective concentrations. Wells containing bacteria with no antibacterial agent served as a positive control. […] Bacteria were added to the same wells at time 0 and then at 24 and 48 h. Bacterial growth was monitored for 24 h after each addition. • (c) Determination of the MIC of Triclosan: The antibacterial effect of Triclosan was tested in 24 hour assays in order to define its MIC. Each well contained 200 μL of sterile growth medium. A range of Triclosan concentrations was added to respective wells. Bacteria were added at 10^6 CFU/well, and the turbidity in the well was continuously monitored for 24 h to monitor bacterial growth. Each group consisted of 8 wells with respective concentrations. Wells containing bacteria with no antibacterial agent served as a positive control. […] Each sample was attached to a special insert that allowed the material to be inserted into the wells of a microtiter plate without interfering with turbidity measurements in that well.

[2] = test system: Enterococcus faecalis strain G; conditions: GOx 6 μg/well (30 μg/mL) or higher, 72 hours, bacteria added at 0, 24 and 48 h
Procedure: Materials and Methods. • A Versamax™ temperature-controlled spectrophotometeric plate reader was used to continuously monitor growth of bacteria. This device accepts standard microtiter plates and maintains a constant temperature as desired. It therefore serves both as an incubator and as a plate reader that quantitatively monitors bacterial growth by following the development of turbidity in the wells. The device is supported by software which allows generation of individual growth curves for each well. • Enterococcus faecalis strain G was used. This bacterium was selected to establish a baseline to which other bacteria may be compared in the future. It is a stable strain and is streptomycin-resistant, which allows the use of this antibiotic agent in the growth media to reduce the incidence of accidental contamination with other bacterial strains. • Growth medium and conditions. The tests were conducted using Brain-Heart Infusion broth (BHI) as growth medium. This medium contained 1 mg/100 ml glucose which is approximately equivalent to serum concentration of glucose. […] Bacteria were added at 10^6 CFU/well and the turbidity in the well was continuously monitored for up to 24 h to monitor the growth of the bacteria. […] Bacteria were added at 10^6 CFU/well, and the turbidity in the well was continuously monitored for 24 h to monitor bacterial growth. […]

[3] = GOx activity assay (o-Dianisidine/peroxidase, optical density at 490 nm); format: biochemical; conditions: 0.03 mg/ml GOx
Procedure: An assay was set up that included: • 48 mM sodium acetate buffer, pH 5.1 • 0.16 mM o-Dianisidine • 1.61% (w/v) glucose • 2 units/ml peroxidase
The above components undergo the following reactions in combination with GOx:
β-D-glucose+O2+H2O→D-Gluconolactone+H2O2 Reaction 1
H2O2+o-Dianisidine(reduced)→o-Dianisidine(oxidized) Reaction 2
The optical density of the assay at 490 nm indicates the concentration of oxidized o-Dianisidine in the assay, oxidized o-Dianisidine being the final product of Reactions 1 and 2. […] The assay was set up in a 96-well plate, in accordance with enzyme-linked immunosorbent assay (ELISA) techniques, as are known in the art. An ELISA reader, as is known in the art, was used to determine the optical density of the assay.
An assay was set up, in accordance with the techniques described with reference to Experiment 1.
The above components, in combination with glucose, undergo Reactions 1 and 2 described with reference to Experiment 1 hereinabove.
Different concentrations of glucose were added to the assay, and the optical density of the assay after five minutes was measured with 490 nm light.
The above assay was set up with sodium acetate buffer of a pH that varied from 4 to 7.7.

Oc1cc(Cl)ccc1Oc1ccc(Cl)cc1Cl [Triclosan, reference compound]
inhibition of bacterial growth ([1]; 4 μg/well (20 μg/mL), 24 h): failed to inhibit | MIC ([1]; Enterococcus faecalis, 24 h, read-out: minimal inhibitory concentration (MIC)): 25 µg/mL (≈ 86.3 µM) | inhibition of bacterial growth ([1]; Triclosan 5 μg/well (25 μg/mL) and above, 24 h): substantially inhibitory

glucose oxidase [GOx]
inhibition of bacterial growth, sustained effect [2]: substantially complete inhibition | influence of pH on GOx activity ([3]; 1.61% (w/v) glucose, sodium acetate buffer pH 4 to 7.7): not substantially influenced | GOx activity at glucose levels of 80-120 mg/dL ([3]; pH 5.1, after five minutes, FIG. 6A): active; also recorded: approximately constant activity | inhibition of bacterial growth ([1]; 4 μg/well (20 μg/mL), 24 h): failed to inhibit | minimal inhibitory concentration (MIC) ([1]; 24 hour assay, BHI broth with 1 mg/100 ml glucose, 37 C, 106 CFU/well): 30 µg/mL | inhibition of bacterial growth ([1]; GOx 6 μg/well (30 μg/mL) or higher, 24 h): substantially inhibitory; also recorded: zero bacterial growth
